Ki data for 25 molecules are collected here from patent publication US20250122225A1, “MASP-2 INHIBITORS AND METHODS OF USE” (Omeros Corporation, priority 2023, published 2025).

The target of one assay is T1, human α-thrombin (Homo sapiens, UniProt P00734).
T1 construct: enzyme (human α-thrombin (BioPharm® Lab.)) in assay buffer; purchased BioPharm® Lab
The experiment in a line: Enzymatic assay for thrombin (fluorogenic peptide substrate Boc-VPR-AMC). The class given is biochemical. The procedure, abridged:
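Human α-thrombin was run with the fluorogenic substrate Boc-VPR-AMC in 20 mM Hepes pH 7.4, 140 mM NaCl, 0.1% Tween 20 at room temperature for 20 min, then stopped with 0.1 M acetic acid. % activity was normalized to DMSO and no-enzyme controls. Under linear conditions IC50 equalled Ki, except for tight-binding inhibitors.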

In a further assay the target is T2, MASP-2 (CCP1-CCP2-SP) (Homo sapiens, UniProt O00187).
T2 construct: 15 μL of Enzyme MASP-2 (CCP1-CCP2-SP) in Assay Buffer
The experiment in a line: Enzymatic assay for MASP-2 inhibitory activity (fluorogenic substrate). The format is biochemical. The gist of the method:
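MASP-2 (CCP1-CCP2-SP) cleaved a fluorogenic substrate based on the C2 cleavage site in 20 mM HEPES pH 7.4, 140 mM NaCl, 0.1% Tween 20 at room temperature. After 20 min the reaction was stopped with 0.1 M acetic acid and fluorescence read. % activity was normalized to DMSO-only and no-enzyme controls; IC50 taken as Ki.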

Where a name gives a salt, the structure may show the parent alone.

T2 sequence (O00187 445-686 limits assumed): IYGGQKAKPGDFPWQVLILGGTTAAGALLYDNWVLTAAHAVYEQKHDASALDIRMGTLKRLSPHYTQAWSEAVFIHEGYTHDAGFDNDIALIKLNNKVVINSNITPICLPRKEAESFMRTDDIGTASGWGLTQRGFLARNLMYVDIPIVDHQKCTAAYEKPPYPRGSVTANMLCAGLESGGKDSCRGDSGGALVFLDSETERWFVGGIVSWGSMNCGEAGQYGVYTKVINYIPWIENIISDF
T2 sequence (O00187 287-444 partner limits assumed): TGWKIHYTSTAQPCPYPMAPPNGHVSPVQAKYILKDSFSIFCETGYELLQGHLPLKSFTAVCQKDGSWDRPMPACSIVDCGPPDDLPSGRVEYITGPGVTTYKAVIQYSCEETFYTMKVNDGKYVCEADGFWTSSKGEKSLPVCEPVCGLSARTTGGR

The term Ki denotes the equilibrium dissociation constant of an inhibitor or competing ligand from its target. A higher Ki goes with a looser hold on the target. With `O=C(NCc1cc2cnccc2[nH]1)[C@@H]1CCc2c(Cl)nc(NC3CCC3)c(=O)n21` [Compound 100, (S)—N-((1H-pyrrolo[3,2-c]pyridin-2-yl)methyl)-1-chloro-3-(cyclobutylamino)-4-oxo-4,6,7,8-tetrahydropyrrolo[1,2-a]pyrazine-6-carboxamide trifluoroacetate], the values for the Ki at human α-thrombin and at MASP-2 (CCP1-CCP2-SP) were more than 25000 nM and less than 500 nM, respectively.

Take `Cc1nc(N)ccc1CNC(=O)[C@@H]1CCc2c(Cl)nc(NCc3cccnc3)c(=O)n21` [Compound 136, (S)-N-((6-amino-2-methylpyridin-3-yl)methyl)-1-chloro-4-oxo-3-((pyridin-3-ylmethyl)amino)-4,6,7,8-tetrahydropyrrolo[1,2-a]pyrazine-6-carboxamide]: the results for the Ki on human α-thrombin and at MASP-2 (CCP1-CCP2-SP) were 500 to 2500 nM and less than 500 nM, respectively.

Consider `Cc1cccc(CNc2ncc3n(c2=O)[C@H](C(=O)NCc2ccc(N)nc2C)CC3)c1F` [Compound 62, (S)-N-((6-amino-2-methylpyridin-3-yl)methyl)-3-((2-fluoro-3-methylbenzyl)amino)-4-oxo-4,6,7,8-tetrahydropyrrolo[1,2-a]pyrazine-6-carboxamide], for which the Ki at human α-thrombin and at MASP-2 (CCP1-CCP2-SP) was less than 500 nM in each case.

Turning to `Cc1cc(F)cc(CNc2ncc3n(c2=O)[C@H](C(=O)NCc2ccc(N)c(F)c2)CC3)c1` [Compound 184, (S)-N-(4-amino-3-fluorobenzyl)-3-((3-fluoro-5-methylbenzyl)amino)-4-oxo-4,6,7,8-tetrahydropyrrolo[1,2-a]pyrazine-6-carboxamide], the Ki on human α-thrombin and at MASP-2 (CCP1-CCP2-SP) was 500 to 2500 nM throughout.

As for `O=C(NCc1cc2cnccc2[nH]1)[C@@H]1CCc2c(Cl)nc(NCC3CCc4ccccc4C3)c(=O)n21` (stereo partly drawn) [Compound 145, (6S)-N-((1H-pyrrolo[3,2-c]pyridin-2-yl)methyl)-1-chloro-4-oxo-3-(((1,2,3,4-tetrahydronaphthalen-2-yl)methyl)amino)-4,6,7,8-tetrahydropyrrolo[1,2-a]pyrazine-6-carboxamide], the results for the Ki at human α-thrombin and on MASP-2 (CCP1-CCP2-SP) were more than 25000 nM and less than 500 nM, respectively.

Take `Cc1cc2[nH]c(CNC(=O)[C@@H]3CCc4cnc(NCc5cc(F)ccc5C)c(=O)n43)cc2cn1` [Compound 64, (S)-3-((5-fluoro-2-methylbenzyl)amino)-N-((6-methyl-1H-pyrrolo[3,2-c]pyridin-2-yl)methyl)-4-oxo-4,6,7,8-tetrahydropyrrolo[1,2-a]pyrazine-6-carboxamide]: the Ki was 10000 to 25000 nM at human α-thrombin and less than 500 nM on MASP-2 (CCP1-CCP2-SP).

`Cc1cc(C)cc(CNc2ncc3n(c2=O)[C@H](C(=O)NCc2cnc(N)c(Cl)c2)CC3)c1` [Compound 189, (S)-N-((6-amino-5-chloropyridin-3-yl)methyl)-3-((3,5-dimethylbenzyl)amino)-4-oxo-4,6,7,8-tetrahydropyrrolo[1,2-a]pyrazine-6-carboxamide]: the Ki on human α-thrombin is 500 to 2500 nM; at MASP-2 (CCP1-CCP2-SP), less than 500 nM.

On to `Cc1ccc(C)c(CNc2nc(Cl)c3n(c2=O)[C@H](C(=O)NCc2cc4cnccc4[nH]2)CC3)c1` [Compound 11, (S)-N-((1H-pyrrolo[3,2-c]pyridin-2-yl)methyl)-1-chloro-3-((2,5-dimethylbenzyl)amino)-4-oxo-4,6,7,8-tetrahydropyrrolo[1,2-a]pyrazine-6-carboxamide], for which the Ki is 10000 to 25000 nM at human α-thrombin and less than 500 nM on MASP-2 (CCP1-CCP2-SP).

For `Cc1cc(CNc2ncc3n(c2=O)[C@H](C(=O)NCc2ccc(N)nc2C)CC3)cc(C(F)(F)F)c1` [Compound 37, (S)-N-((6-amino-2-methylpyridin-3-yl)methyl)-3-((3-methyl-5-(trifluoromethyl)benzyl)amino)-4-oxo-4,6,7,8-tetrahydropyrrolo[1,2-a]pyrazine-6-carboxamide], the Ki at human α-thrombin and on MASP-2 (CCP1-CCP2-SP) was less than 500 nM throughout.

On to `O=C(NCc1cc2cnccc2[nH]1)[C@@H]1CCc2c(Cl)nc(NCc3ccc4c(c3)CCCC4)c(=O)n21` [Compound 162, (S)—N-((1H-pyrrolo[3,2-c]pyridin-2-yl)methyl)-1-chloro-4-oxo-3-(((5,6,7,8-tetrahydronaphthalen-2-yl)methyl)amino)-4,6,7,8-tetrahydropyrrolo[1,2-a]pyrazine-6-carboxamide], for which the figures for the inhibitory constant (Ki) on human α-thrombin and on MASP-2 (CCP1-CCP2-SP) were more than 25000 nM and less than 500 nM, respectively.

Consider `Cc1cc(F)cc(CNc2nc(C3CC3)c3n(c2=O)[C@H](C(=O)NCc2ccc(N)nc2C)CC3)c1` [Compound 210, (S)—N-((6-amino-2-methylpyridin-3-yl)methyl)-1-cyclopropyl-3-((3-fluoro-5-methylbenzyl)amino)-4-oxo-4,6,7,8-tetrahydropyrrolo[1,2-a]pyrazine-6-carboxamide trifluoroacetate], for which the Ki on human α-thrombin is 500 to 2500 nM; at MASP-2 (CCP1-CCP2-SP), less than 500 nM.

In the case of `Cc1ccc(C)c(CNc2ncc3n(c2=O)[C@H](C(=O)NCc2cc4cnccc4[nH]2)CC3)c1` [Compound 56, (S)-N-((1H-pyrrolo[3,2-c]pyridin-2-yl)methyl)-3-((2,5-dimethylbenzyl)amino)-4-oxo-4,6,7,8-tetrahydropyrrolo[1,2-a]pyrazine-6-carboxamide], the Ki is 500 to 2500 nM on human α-thrombin and less than 500 nM on MASP-2 (CCP1-CCP2-SP).

With `CC[C@@H](Nc1ncc2n(c1=O)[C@H](C(=O)NCc1cc3c(s1)CNC3)CC2)c1ccc(C)cc1` [Compound 266, (S)-N-((5,6-dihydro-4H-thieno[2,3-c]pyrrol-2-yl)methyl)-4-oxo-3-(((R)-1-(p-tolyl)propyl)amino)-4,6,7,8-tetrahydropyrrolo[1,2-a]pyrazine-6-carboxamide trifluoroacetate], the Ki on human α-thrombin and on MASP-2 (CCP1-CCP2-SP) was less than 500 nM in each case.

With `Cc1nc(N)ccc1CNC(=O)[C@@H]1CCc2c(Cl)nc(NCCC(F)F)c(=O)n21` [Compound 18, (S)-N-((6-amino-2-methylpyridin-3-yl)methyl)-1-chloro-3-((3,3-difluoropropyl)amino)-4-oxo-4,6,7,8-tetrahydropyrrolo[1,2-a]pyrazine-6-carboxamide], the Ki at human α-thrombin is 2500 to 10000 nM; at MASP-2 (CCP1-CCP2-SP), less than 500 nM.

With `CCc1cc(CNc2ncc3n(c2=O)[C@H](C(=O)NCc2cc4c(s2)CNC4)CC3)cc(-c2ccccc2)c1` [Compound 262], the results for the Ki at human α-thrombin and at MASP-2 (CCP1-CCP2-SP) were 500 to 2500 nM and less than 500 nM, respectively.

`COc1cc(C)cc(CNc2ncc3n(c2=O)[C@H](C(=O)NCc2cc4cnc(C)cc4[nH]2)CC3)c1` [Compound 51, (S)-3-((3-methoxy-5-methylbenzyl)amino)-N-((6-methyl-1H-pyrrolo[3,2-c]pyridin-2-yl)methyl)-4-oxo-4,6,7,8-tetrahydropyrrolo[1,2-a]pyrazine-6-carboxamide]: the Ki is 2500 to 10000 nM at human α-thrombin and less than 500 nM at MASP-2 (CCP1-CCP2-SP).

For the molecule `O=C(NCc1cc2cnccc2[nH]1)[C@@H]1CCc2c(Cl)nc(NCC3CCOCC3)c(=O)n21` [Compound 101, trifluoroacetate], the Ki at human α-thrombin was more than 25000 nM; on MASP-2 (CCP1-CCP2-SP), less than 500 nM.

Take `COc1cc(F)cc(CNc2ncc3n(c2=O)[C@H](C(=O)N[C@H](C)c2ccc(N)nc2)CC3)c1` [Compound 200, (S)-N-((R)-1-(6-aminopyridin-3-yl)ethyl)-3-((3-fluoro-5-methoxybenzyl)amino)-4-oxo-4,6,7,8-tetrahydropyrrolo[1,2-a]pyrazine-6-carboxamide trifluoroacetate]: the Ki at human α-thrombin is 2500 to 10000 nM; on MASP-2 (CCP1-CCP2-SP) it was less than 500 nM.

As to `Cc1nc(N)ccc1CNC(=O)[C@@H]1CCc2c(Cl)nc(NCc3ccc(Cl)cc3)c(=O)n21` [Compound 30, trifluoroacetate], the results for the Ki at human α-thrombin and at MASP-2 (CCP1-CCP2-SP) were 2500 to 10000 nM and less than 500 nM, respectively.

For the molecule `Cc1cccc(CNc2ncc3n(c2=O)[C@H](C(=O)NCc2cc4cnccc4[nH]2)CC3)c1` [Compound 115, (S)-N-((1H-pyrrolo[3,2-c]pyridin-2-yl)methyl)-3-((3-methylbenzyl)amino)-4-oxo-4,6,7,8-tetrahydropyrrolo[1,2-a]pyrazine-6-carboxamide trifluoroacetate], the Ki on human α-thrombin was 500 to 2500 nM; at MASP-2 (CCP1-CCP2-SP), less than 500 nM.

For the molecule `COc1cc(C)cc(CNc2ncc3n(c2=O)[C@@H](C(=O)NCc2cc4cnccc4[nH]2)CC3)c1` [Compound 164], the values for the Ki on human α-thrombin and at MASP-2 (CCP1-CCP2-SP) were 2500 to 10000 nM and less than 500 nM, respectively.

Turning to `Cc1cc(F)cc(CNc2ncc3n(c2=O)[C@H](C(=O)NCc2cc4cnccc4[nH]2)CC3)c1` [Compound 70, (S)-N-((1H-pyrrolo[3,2-c]pyridin-2-yl)methyl)-3-((3-fluoro-5-methylbenzyl)amino)-4-oxo-4,6,7,8-tetrahydropyrrolo[1,2-a]pyrazine-6-carboxamide], the Ki at human α-thrombin is 500 to 2500 nM; at MASP-2 (CCP1-CCP2-SP), less than 500 nM.

As to `Cc1cc(F)cc(CNc2nc(C3CCCCC3)c3n(c2=O)[C@H](C(=O)NCc2ccc(N)nc2C)CC3)c1` [Compound 176, (S)—N-((6-amino-2-methylpyridin-3-yl)methyl)-1-cyclohexyl-3-((3-fluoro-5-methylbenzyl)amino)-4-oxo-4,6,7,8-tetrahydropyrrolo[1,2-a]pyrazine-6-carboxamide DI-trifluoroacetate], the Ki at human α-thrombin is 10000 to 25000 nM; on MASP-2 (CCP1-CCP2-SP), less than 500 nM.

As to `CC[C@@H](Nc1ncc2n(c1=O)[C@H](C(=O)NCc1cc3c(s1)CNC3)CC2)c1ccccc1` [Compound 234], the Ki on human α-thrombin and on MASP-2 (CCP1-CCP2-SP) was less than 500 nM each time.

As to `O=C(NCc1cc2cnccc2[nH]1)[C@@H]1CC2(CC2)c2cnc(NCc3ccccc3)c(=O)n21` [Compound 125, (S)-N-((1H-pyrrolo[3,2-c]pyridin-2-yl)methyl)-3′-(benzylamino)-4′-oxo-6′,7′-dihydro-4′H-spiro[cyclopropane-1,8′-pyrrolo[1,2-a]pyrazine]-6′-carboxamide], the Ki at human α-thrombin is 2500 to 10000 nM; on MASP-2 (CCP1-CCP2-SP) it was less than 500 nM.
